In patent publication US20050085444A1, “Cosmetic or dermatological use of vitamin a or the esters thereof in combination with a partly methylated beta-cyclodextrin” (priority 2002, published 2005):

Details: fresh human skin with dermis, control/VAP gel and RAMEB/VAP gel, contact time 24 hours
Experimental: The study is carried out using the Franz cells characterized above.
After a contact time of 24 hours, the excess gel on the surface of the skin is washed off with the aid of cotton buds.
The cotton buds together with the upper part of the cell are immersed in 10 ml of isopropanol and ultrasonicated for 15 minutes and then stirred for 2 hours.
The solutions are diluted to 1/10 and filtered on a 0.2 μm filter before assaying.
The stratum corneum is collected by 7 successive strippings (pressure 300 g/cm^2, duration 12 s). The VAP is extracted by solubilization in 2 ml of methanol overnight at 4° C., followed by stirring for 2 hours and finally filtration on a 0.2 μm filter before assaying.
With the stratum corneum removed, the epidermis is separated from the dermis with the aid of a scalpel.
The VAP is extracted from the epidermis by solubilization of the latter in 1 ml of methanol overnight at 4° C., followed by stirring for 2 hours and finally filtration on a 0.2 μm filter before assaying.
The VAP assays are performed by HPLC.

SMILES: CCC(=O)OC/C=C(C)/C=C/C=C(C)/C=C/C1=C(C)CCCC1(C)C [VAP, vitamin A propionate]
- VAP detected in the reception liquid: No trace
